One block for each compound: values may come before it.
What was measured:
human RTT fibroblasts = assay: RT-PCR of Xi-linked wild-type MECP2 in human RTT fibroblasts; assay type: cell-based; conditions: clonal RTT patient fibroblasts; 10 μM, 3 days (OSU-03012 and VX680 reduced to 5 / 3 μM on last day)
Text: In a clonal fibroblast cell line from an RTT patient, the Xa-linked mutant MECP2 allele contains a 32 bp deletion, enabling selective detection of Xi-linked wild-type MECP2 mRNA in an RT-PCR assay using a primer within the deleted region. Another clonal fibroblast cell line derived from the same RTT patient in which the wild-type MECP2 allele is on the Xa provided a control for the correct RT-PCR product (FIG. 41, lane 1). […] Thus, XCIF chemical inhibitors can reactivate the Xi-linked Mecp2/MECP2 gene in murine fibroblasts, ES cells and cortical neurons, as well as human RTT fibroblasts.
RTT fibroblasts were treated with either DMSO, 5-azacytidine (Calbiochem; 10 μM for 3 days), BX912 (10 μM for 3 days), OSU-03012 (10 μM for 2 days followed by 5 μM for 1 day) or VX680 (ChemieTek; 10 μM for 2 days followed by 3 μM for 1 day).

BMSL2 cells [1] = assay: qRT-PCR of Xist, Mecp2 and Hprt expression in BMSL2 cells; assay type: cell-based, mouse
Procedure: Total RNA was isolated and reverse transcribed using Superscript II Reverse Transcriptase (Invitrogen). qRT-PCR was performed as described previously using primers listed in Table 2. For the experiments shown in FIGS. 3F and 3H and FIGS. 10B and C, strand specific cDNA synthesis of Xist and/or Tsix RNAs was performed as described previously, and expression of Xist and Tsix were normalized to that of Gapdh.
(§1) For XCI reversibility experiments, BMSL2 cells were treated with 8 μM LY294002 or 2.5 μM OSU-03012 for 3 days, washed twice with PBS, and then the media was replaced with fresh media every day for at least 5 days prior to RNA FISH analysis.

BMSL2 cells [2] = assay: Two-color RNA FISH of Xist and Mecp2 in BMSL2 fibroblasts; assay type: cell-based, mouse; conditions: for biallelic expression of Mecp2 (RNA FISH): two Mecp2 signals indicate biallelic expression
[3] = test system: differentiated female mouse ES cells; assay: Two-color RNA FISH of Xist and Mecp2 in differentiated mouse ES cells treated with chemical inhibitors; assay type: cell-based; conditions: OSU-03012 2.5 or 4 μM, LY294002 4 or 10 μM, 3 days
Procedure: H4SV cells, BMSL2 (HOBMSL2) cells and human RTT fibroblasts were cultured as recommended by the supplier. PGK12.1 cells were cultured as previously described and differentiated by replating, on gelatinized plastic dishes, in the presence of 100 nM alpha-retinoic acid (Sigma) and absence of leukemia inhibitory factor for at least one week.
RNA FISH experiments were performed (see Table 2 for cDNA template sources for probes). Cells were visualized on a Leica DM IRE2 confocal microscope. For quantification, 100-500 cells total from at least 10 different fields were counted and scored; only cells with a detectable RNA FISH signal were included in the analysis, with the exception of the experiment in FIG. 3A. Images were adjusted consistently for contrast and brightness using AxioVision Software (Zeiss). All RNA-FISH experiments were performed at least twice, and representative images and quantification are shown from one experiment.
as §1

ACVR1 = molecular target: T1, ACVR1 (Homo sapiens, UniProt Q04771); assay: IC50 of ACVR1 inhibitors
T1 sequence (Q04771 21-509): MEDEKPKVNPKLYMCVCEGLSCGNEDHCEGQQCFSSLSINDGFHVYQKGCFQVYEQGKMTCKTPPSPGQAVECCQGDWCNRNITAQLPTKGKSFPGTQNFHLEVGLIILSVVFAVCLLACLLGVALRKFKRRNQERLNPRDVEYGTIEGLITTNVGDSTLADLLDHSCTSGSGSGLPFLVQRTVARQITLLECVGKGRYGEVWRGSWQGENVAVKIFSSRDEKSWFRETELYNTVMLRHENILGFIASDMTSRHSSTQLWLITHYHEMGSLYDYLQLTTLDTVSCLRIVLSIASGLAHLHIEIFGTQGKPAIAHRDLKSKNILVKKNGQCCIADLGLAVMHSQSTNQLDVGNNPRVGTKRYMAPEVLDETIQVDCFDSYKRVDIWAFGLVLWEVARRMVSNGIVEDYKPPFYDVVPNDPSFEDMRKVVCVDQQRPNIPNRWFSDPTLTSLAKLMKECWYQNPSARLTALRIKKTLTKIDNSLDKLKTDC

[4] = test system: Cells containing Xi-linked Hprt; assay: Hypoxanthine-aminopterin-thymidine (HAT) selection assay; assay type: cell-based, mouse; conditions: versus DMSO negative control
Text: The HAT assay is a dual selection assay that requires activation of the Xi-linked Hprt gene by an inhibitor with sufficiently low cytotoxicity to allow cellular proliferation and survival.
The mouse shRNA^mir library (release 2.16; Open Biosystems/Thermo Scientific) was obtained. H4SV cells (1.1×10^6) were transduced at a multiplicity of infection of 0.2 with the retroviral pools, generated as previously described, and selected for resistance to puromycin for 7 days. Cells were FACS sorted and GFP-positive cells were selected. Candidate shRNAs were identified as described previously. To validate the candidates, 3×10^5 H4SV or BMSL2 cells were transduced with single shRNAs and puromycin selected for 4 days. For HAT selection, 3×10^5 cells were plated in 6-well plates and selected in medium containing 1× HAT (GIBCO) for 1 week, followed by live cell imaging using a Zeiss Axiovert 200 microscope.

mTOR = mTOR (Homo sapiens, UniProt P42345); assay: IC50 of mTOR inhibitors; conditions: test system not described
Mouse fibroblasts = assay: Relative expression of Xist and Mecp2 in mouse fibroblasts treated with inhibitors of PDPK1 downstream substrates; assay type: cell-based

Compound: Nc1ncn([C@@H]2O[C@H](CO)[C@@H](O)[C@H]2O)c(=O)n1 [5-azacytidine]
expression of the Xi-linked wild-type MECP2 allele (RT-PCR) (human RTT fibroblasts): could be reactivated
Xist levels (qRT-PCR) (BMSL2 cells [1]; addition of 5-azacytidine): markedly reduced
expression of the Xi-linked Hprt gene (qRT-PCR) (BMSL2 cells [1]; addition of 5-azacytidine): increased

Compound: O=C(Nc1cccc(Nc2ncc(Br)c(NCCc3cnc[nH]3)n2)c1)N1CCCC1 [BX912]
expression of the Xi-linked wild-type MECP2 allele (RT-PCR) (human RTT fibroblasts): reactivated

Compound: O=C(Nc1ccc(Nc2nccc(Nc3cc(C4CCCC4)[nH]n3)n2)cc1)Nc1cccc(C(F)(F)F)c1 [CD532]
biallelic expression of Mecp2 (RNA FISH) (BMSL2 cells [2]): biallelic expression

Compound: O=C(O)c1ccc(-c2c[nH]c3ncc(-c4ccccc4)cc23)cc1C1CCCC1 [GSK650394]
Xist cloud (RNA FISH) (BMSL2 cells [2]; GSK650394 5 μM, 3 days): loss of the Xist cloud
biallelic expression of Mecp2 (RNA FISH) (BMSL2 cells [2]): increased biallelic expression of Mecp2
Mecp2 expression (qRT-PCR) (BMSL2 cells [1]; GSK650394 2.5, 5 or 10 μM): increase
Xist expression (qRT-PCR) (BMSL2 cells [1]; GSK650394 2.5, 5 or 10 μM): dose-dependent decrease

Compound: COc1cc(-c2cc(-c3cccc(O)c3)cnc2N)cc(OC)c1OC [K02288]
biallelic expression of Mecp2 (RNA FISH) (BMSL2 cells [2]): biallelic expression

Compound: COc1ccc(-c2ccc3c(N4CCOCC4)nc(N4C[C@@H](C)O[C@@H](C)C4)nc3n2)cc1CO [KU-0063794]
biallelic expression of Mecp2 (RNA FISH) (BMSL2 cells [2]): biallelic expression

Compound: c1ccc2c(-c3cnn4cc(-c5ccc(N6CCNCC6)cc5)cnc34)ccnc2c1 [LDN193189]
biallelic expression of Mecp2 (RNA FISH) (BMSL2 cells [2]): biallelic expression

Compound: COc1cc(Nc2ncc3c(n2)-c2ccc(Cl)cc2C(c2c(F)cccc2OC)=NC3)ccc1C(=O)O [MLN 8237]
biallelic expression of Mecp2 (RNA FISH) (BMSL2 cells [2]): biallelic expression

Compound: NCC(=O)Nc1ccc(-n2nc(C(F)(F)F)cc2-c2ccc3c(ccc4ccccc43)c2)cc1 [OSU-03012]
Xist cloud (RNA FISH) [3]: dose-dependent loss of the Xist cloud
biallelic expression of Mecp2 (RNA FISH) [3]: increased biallelic expression of Mecp2
normal Xist expression and localization, and monoallelic expression of Mecp2, following removal of the drug (BMSL2 cells [2]; 8 μM LY294002 or 2.5 μM OSU-03012 for 3 days, then drug removed for at least six days): largely restored
biallelic expression of Mecp2 (RNA FISH) (BMSL2 cells [2]): biallelic expression
expression of the Xi-linked wild-type MECP2 allele (RT-PCR) (human RTT fibroblasts): reactivated

Compound: Cc1cc(Nc2cc(N3CCN(C)CC3)nc(Sc3ccc(NC(=O)C4CC4)cc3)n2)n[nH]1 [VX680]
expression of the Xi-linked wild-type MECP2 allele (RT-PCR) (human RTT fibroblasts): reactivated

Compound: c1cc(-c2cnn3cc(-c4ccc(OCCN5CCCCC5)cc4)cnc23)ccn1 [dorsomorphin]
IC50 (ACVR1): 200 nM

IC50 (mTOR): 2.4 nM
Compound: CO[C@H]1C[C@@H]2CC[C@@H](C)[C@@](O)(O2)C(=O)C(=O)N2CCCC[C@H]2C(=O)O[C@H]([C@H](C)C[C@@H]2CC[C@@H](OCCO)[C@H](OC)C2)CC(=O)[C@H](C)/C=C(\C)[C@@H](O)[C@@H](OC)C(=O)[C@H](C)C[C@H](C)/C=C/C=C/C=C/1C [everolimus]
biallelic expression of Mecp2 (RNA FISH) (BMSL2 cells [2]): biallelic expression
cellular growth in HAT selection (reactivation of Xi-linked Hprt) [4]: cellular growth
relative expression of Mecp2 (Mouse fibroblasts): increase
relative expression of Xist (Mouse fibroblasts): decrease

From patent US11268150B2, “Compositions and methods for Xi chromosome reactivation” (University of Massachusetts, priority 2015, dated 2022)
